According to patent publication US20250257064A1, “TRIFLUOROMETHYL-SUBSTITUTED SULFONAMIDE AS BCL-2-SELECTIVE INHIBITOR” (Chia Tai Tianqing Pharmaceutical Group Co., Ltd., priority 2018, published 2025):

Assays:
RS4;11 cells = assay: Inhibitory effect on proliferation of RS4;11 cells (CCK-8); type: cell-based, human; details: Homo sapiens, RS4-11, 72 h
Description: Experimental Example 2: Inhibitory Effect of Compounds on Proliferation of RS4;11 Cells
RS4;11 cells (from Nanjing Cobioer) in logarithmic growth phase and good cell condition were added to a centrifuge tube and centrifuged at 1500 rpm for 3 min in a low speed centrifuge. The supernatant was discarded, and 5 mL of complete medium (RPMI basic medium+10 wt % fetal bovine serum (FBS)) was added using a pipette for cell resuspension. The cells were counted using a cell counter, diluted with complete medium to a cell density of 2×10^5 cells/mL, and added with an equivalent amount of RPMI basic medium to adjust the serum concentration to 5% and the cell density to 1×10^5 cells/mL for plate seeding. The cells were seeded on a 96-well plate at 100 μL/well using a pipettor, and incubated in an incubator at 37° C., 5% CO2 with saturated humidity. After 24 h of incubation, compounds were loaded using a nanoliter pipettor, 2 duplicate wells were set for each concentration, and cells without compound were used as negative controls. […] Inhibition rate (%)=(mean value of negative control group—mean value of experimental group)/(mean value of negative control group—mean value of blank group)×100%. A dose-response curve was fitted by four-parameter analysis, with the logarithm of compound concentration serving as abscissa and inhibition rate serving as ordinate, so that IC50 was calculated (FIG. 2).

BCL-2/BAK = target: T1, BCL-2/BAK (Homo sapiens, UniProt P10415); assay: Screening on inhibitory activity for BCL-2/BAK binding (Cisbio HTRF kit)
T1 construct: purchased Cisbio
T1 sequence (P10415 whole entry, species assumed): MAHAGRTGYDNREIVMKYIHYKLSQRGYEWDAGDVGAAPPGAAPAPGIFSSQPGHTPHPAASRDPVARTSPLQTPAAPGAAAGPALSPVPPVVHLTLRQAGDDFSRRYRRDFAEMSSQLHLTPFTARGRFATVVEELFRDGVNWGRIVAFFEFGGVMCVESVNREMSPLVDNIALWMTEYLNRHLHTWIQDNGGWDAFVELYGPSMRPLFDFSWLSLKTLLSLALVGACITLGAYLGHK
Description: 1.1 Screening on Inhibitory Activity for BCL-2/BAK Binding
500 nM Tag1-BCL-2 protein stock solution and 20 μM Tag2-BAK protein stock solution were diluted to 5 nM and 120 nM respectively with dilution buffer in kit (model: BCL-2/BAK (BH3) BINDING ASSAY KITS, from Cisbio). 5 μL of Tag1-BCL-2 protein diluent was added to each well, then different compounds dissolved with DMSO were added to the wells with a nanoliter pipettor, allowing the final compound concentrations to be 200 nM to 0.0488 nM (4-fold gradient for 7 concentrations in total). Blank control wells (without enzyme) and negative control wells (with enzyme, plus vehicle DMSO) were set, and 2 replicate wells were set. Finally, 5 μL of Tag2-BAK protein diluent was added to each well, and the mixture was mixed well by centrifugation and incubated at 25° C. for 15 min. 100× anti-Tag1-Eu^3+ and 100× anti-Tag2-XL665 were both diluted to 1× working concentration with the detection buffer in the kit. Anti-Tag1-Eu^3+ and anti-Tag2-XL665 were mixed well in a 1:1 ratio, and the mixture was added to wells at 5 μL/well, and incubated at 25° C. for 2 h or more. The plate was read using a PE Envision multi-functional microplate reader (excitation: […], emission: 665 nm) and IC50 (shown in table 1) was calculated by four-parameter fitting.

BCL-XL/BAK = target: T2, BCL-XL/BAK (Homo sapiens, UniProt Q07817); assay: Screening on inhibitory activity for BCL-XL/BAK binding (Cisbio HTRF kit)
T2 construct: purchased Cisbio
T2 sequence (Q07817 whole entry, species assumed): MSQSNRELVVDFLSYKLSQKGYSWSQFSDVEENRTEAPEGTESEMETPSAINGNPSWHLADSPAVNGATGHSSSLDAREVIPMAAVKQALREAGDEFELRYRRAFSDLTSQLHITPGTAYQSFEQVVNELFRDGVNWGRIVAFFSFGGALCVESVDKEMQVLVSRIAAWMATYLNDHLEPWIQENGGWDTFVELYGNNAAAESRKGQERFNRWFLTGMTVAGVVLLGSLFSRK
Description: 1.2 Screening on Inhibitory Activity for BCL-XL/BAK Binding
300 nM Tag1-BCL-XL protein stock solution and 10 μM Tag2-BAK protein stock solution were diluted to 2 nM and 80 nM respectively with dilution buffer in kit (model: BCL-XL/BAK (BH3) BINDING ASSAY KITS, from Cisbio). 5 μL of Tag1-BCL-XL protein diluent was added to each well, then different compounds dissolved with DMSO were added to the wells with a nanoliter pipettor, allowing the final compound concentrations to be 2000 nM to 0.488 nM (4-fold gradient for 7 concentrations in total). Blank control wells (without enzyme) and negative control wells (with enzyme, plus vehicle DMSO) were set, and 2 replicate wells were set. Finally, 5 μL of Tag2-BAK protein diluent was added to each well, and the mixture was mixed well by centrifugation and incubated at 25° C. for 15 min. 100× anti-Tag1-Eu^3+ and 100× anti-Tag2-XL665 were both diluted to 1× working concentration with the detection buffer in the kit. Anti-Tag1-Eu^3+ and anti-Tag2-XL665 were mixed well in a 1:1 ratio, and the mixture was added to wells at 5 µL/well, and incubated at 25° C. for 2 h or more. The plate was read using a PE Envision multi-functional microplate reader (excitation: […], emission: 665 nm) and IC50 (shown in table 1) was calculated by four-parameter fitting.

Row | Compound | IC50 (RS4;11 cells) [nM] | IC50 (BCL-2/BAK) [nM] | IC50 (BCL-XL/BAK) [nM]
1 | CC1(C)CCC(CN2CCN(c3ccc(C(=O)NS(=O)(=O)c4ccc(NCC5CCCOC5)c([N+](=O)[O-])c4)c(Oc4cnc5[nH]ccc5c4)c3)CC2)=C(c2ccc(C(F)(F)F)cc2Cl)C1 (stereo not drawn) [Compound 13-1, 4-(4-{[2-(2-chloro-4-trifluoromethylphenyl)-4,4-dimethylcyclohex-1-enyl]methyl}-piperazin-1-yl)-N-({3-nitro-4-[(tetrahydro-2H-pyran-3-ylmethyl)amino]phenyl}sulfonyl)-2-(1H-pyrrolo[2,3-b]pyridin-5-yloxy)-benzamide] | 8.1 | 3.6 | 387
2 | CC(C)C(=O)N1CCC(CNc2ccc(S(=O)(=O)NC(=O)c3ccc(N4CCN(CC5=C(c6ccc(C(F)(F)F)cc6Cl)CC(C)(C)CC5)CC4)cc3Oc3cnc4[nH]ccc4c3)cc2[N+](=O)[O-])CC1 [Compound 23-1] | 10 | 5.1 | 302
3 | CC1(C)CCC(CN2CCN(c3ccc(C(=O)NS(=O)(=O)c4ccc(NC[C@H]5CCOC5)c([N+](=O)[O-])c4)c(Oc4cnc5[nH]ccc5c4)c3)CC2)=C(c2ccc(C(F)(F)F)cc2Cl)C1 [Compound 35-1, (R)-4-(4-{[2-(2-chloro-4-trifluoromethylphenyl)-4,4-dimethylcyclohex-1-enyl]methyl}-piperazin-1-yl)-N-({3-nitro-4-[((tetrahydrofuran-3-yl)methyl)amino]phenyl}sulfonyl)-2-(1H-pyrrolo[2,3-b]pyridin-5-yloxy)-benzamide] | 9.6 | 1.61 | 232
4 | CC(=O)N1CCOC(CCNc2ccc(S(=O)(=O)NC(=O)c3ccc(N4CCN(CC5=C(c6ccc(C(F)(F)F)cc6Cl)CC(C)(C)CC5)CC4)cc3Oc3cnc4[nH]ccc4c3)cc2[N+](=O)[O-])C1 (stereo not drawn) [Compound 16-1, 4-(4-{[2-(2-chloro-4-trifluoromethylphenyl)-4,4-dimethylcyclohex-1-enyl]methyl}-piperazin-1-yl)-N-({3-nitro-4-[(2-(4-acetylmorpholin-2-yl)ethyl)amino]phenyl}sulfonyl)-2-(1H-pyrrolo[2,3-b]pyridin-5-yloxy)-benzamide] | 7.8 | 3.09 | 653
5 | CC1(C)CCC(CN2CCN(c3ccc(C(=O)NS(=O)(=O)c4ccc(NC[C@H]5CCCOC5)c([N+](=O)[O-])c4)c(Oc4cnc5[nH]ccc5c4)c3)CC2)=C(c2ccc(C(F)(F)F)cc2Cl)C1 [Compound 42-1, (R)-4-(4-{[2-(2-chloro-4-trifluoromethylphenyl)-4,4-dimethylcyclohex-1-enyl]methyl}-piperazin-1-yl)-N-({3-nitro-4-[((tetrahydropyran-3-yl)methyl)amino]phenyl}sulfonyl)-2-(1H-pyrrolo[2,3-b]pyridin-5-yloxy)-benzamide] | 6.8 | 2.81 | 220
6 | CC1(C)CCC(CN2CCN(c3ccc(C(=O)NS(=O)(=O)c4ccc(NCC5CCCN(S(C)(=O)=O)C5)c([N+](=O)[O-])c4)c(Oc4cnc5[nH]ccc5c4)c3)CC2)=C(c2ccc(C(F)(F)F)cc2Cl)C1 (stereo not drawn) [Compound 15-1] | 7.2 | 3.83 | 729
7 | CCOC(=O)N1CCOC(CNc2ccc(S(=O)(=O)NC(=O)c3ccc(N4CCN(CC5=C(c6ccc(C(F)(F)F)cc6Cl)CC(C)(C)CC5)CC4)cc3Oc3cnc4[nH]ccc4c3)cc2[N+](=O)[O-])C1 (stereo not drawn) [Compound 74-1, 4-(4-{[2-(2-chloro-4-trifluoromethylphenyl)-4,4-dimethylcyclohex-1-enyl]methyl}-piperazin-1-yl)-N-({3-nitro-4-[((4-(ethoxyformyl)morpholin-2-yl)methyl)amino]phenyl}sulfonyl)-2-(1H-pyrrolo[2,3-b]pyridin-5-yloxy)-benzamide] | 6.9 | 1.66 | 252

Stronger by IC50 (RS4;11 cells), values ahead:

Row | IC50 (RS4;11 cells) [nM] | IC50 (BCL-2/BAK) [nM] | IC50 (BCL-XL/BAK) [nM] | Compound
8 | 4.3 | 2.59 | 211 | CC1(C)CCC(CN2CCN(c3ccc(C(=O)NS(=O)(=O)c4ccc(NCC5CN(C(=O)C(C)(C)C)CCO5)c([N+](=O)[O-])c4)c(Oc4cnc5[nH]ccc5c4)c3)CC2)=C(c2ccc(C(F)(F)F)cc2Cl)C1 (stereo not drawn) [Compound 50-1, 4-(4-{[2-(2-chloro-4-trifluoromethylphenyl)-4,4-dimethylcyclohex-1-enyl]methyl}-piperazin-1-yl)-N-({3-nitro-4-[((4-pivaloylmorpholin-2-yl)methyl)amino]phenyl}sulfonyl)-2-(1H-pyrrolo[2,3-b]pyridin-5-yloxy)-benzamide]
9 | 5.3 | 2.35 | 145 | COCC(=O)N1CCCC(CNc2ccc(S(=O)(=O)NC(=O)c3ccc(N4CCN(CC5=C(c6ccc(C(F)(F)F)cc6Cl)CC(C)(C)CC5)CC4)cc3Oc3cnc4[nH]ccc4c3)cc2[N+](=O)[O-])C1 (stereo not drawn) [Compound 58-1, 4-(4-{[2-(2-chloro-4-trifluoromethylphenyl)-4,4-dimethylcyclohex-1-enyl]methyl}-piperazin-1-yl)-N-({3-nitro-4-[((1-(2-methoxyacetyl)piperidin-3-yl)methyl)amino]phenyl}sulfonyl)-2-(1H-pyrrolo[2,3-b]pyridin-5-yloxy)-benzamide]
10 | 6.6 | 2.81 | 187 | CC1(C)CCC(CN2CCN(c3ccc(C(=O)NS(=O)(=O)c4ccc(NC[C@H]5CCCO5)c([N+](=O)[O-])c4)c(Oc4cnc5[nH]ccc5c4)c3)CC2)=C(c2ccc(C(F)(F)F)cc2Cl)C1 [Compound 38-1, (R)-4-(4-{[2-(2-chloro-4-trifluoromethylphenyl)-4,4-dimethylcyclohex-1-enyl]methyl}-piperazin-1-yl)-N-({3-nitro-4-[((tetrahydrofuran-2-yl)methyl)amino]phenyl}sulfonyl)-2-(1H-pyrrolo[2,3-b]pyridin-5-yloxy)-benzamide]
11 | 0.8 | 0.6 | 199 | CC1(C)CCC(CN2CCN(c3ccc(C(=O)NS(=O)(=O)c4ccc(NC[C@@H]5CN(S(C)(=O)=O)CCO5)c([N+](=O)[O-])c4)c(Oc4cnc5[nH]ccc5c4)c3)CC2)=C(c2ccc(C(F)(F)F)cc2Cl)C1 [Compound 67-1, (R)-4-(4-{[2-(2-chloro-4-trifluoromethylphenyl)-4,4-dimethylcyclohex-1-enyl]methyl}-piperazin-1-yl)-N-({3-nitro-4-[(((4-(methylsulfonyl)morpholin)-2-yl)methyl)amino]phenyl}sulfonyl)-2-(1H-pyrrolo[2,3-b]pyridin-5-yloxy)-benzamide]
12 | 1.5 | 1.6 | 204 | COCC(=O)N1CCC(CNc2ccc(S(=O)(=O)NC(=O)c3ccc(N4CCN(CC5=C(c6ccc(C(F)(F)F)cc6Cl)CC(C)(C)CC5)CC4)cc3Oc3cnc4[nH]ccc4c3)cc2[N+](=O)[O-])CC1 [Compound 73-1, 4-(4-{[2-(2-chloro-4-trifluoromethylphenyl)-4,4-dimethylcyclohex-1-enyl]methyl}-piperazin-1-yl)-N-({3-nitro-4-[((1-(2-methoxyacetyl)piperidin-4-yl)methyl)amino]phenyl}sulfonyl)-2-(1H-pyrrolo[2,3-b]pyridin-5-yloxy)-benzamide]
